Laboratory results published in patent publication US12673946B2, “Pyrimidin-4(3H)-one derivatives as TRPV4 antagonists” (RaQualia Pharma Inc., priority 2020, dated 2026).

Biological target: T1, human TRPV4 (Homo sapiens, UniProt Q9HBA0)
T1 construct: host or cells: tetracycline-inducible Flp-In T-REx 293 cells
Experiment: Hypotonicity-induced Ca2+ influx (Fluo-4, FDSS)
Assay type: cell-based
Method in brief: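 Flp-In T-REx 293 cells with tetracycline-induced human TRPV4, loaded with Fluo-4 for 60 min at 25 °C. Compound added 5 min before hypotonic mannitol/CaCl2 solution. Ca2+ signal recorded for 4.5 min on FDSS.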

[1] = Flp-In T-REx 293 cells expressing human TRPV4, examples listed under heading 'Human IC50<50 nM'
[2] = Flp-In T-REx 293 cells stably expressing human TRPV4, compounds listed by potency bin (<10 nM Tables 96-1/96-2, <3 nM Table 97)

T1 sequence (Q9HBA0 whole entry): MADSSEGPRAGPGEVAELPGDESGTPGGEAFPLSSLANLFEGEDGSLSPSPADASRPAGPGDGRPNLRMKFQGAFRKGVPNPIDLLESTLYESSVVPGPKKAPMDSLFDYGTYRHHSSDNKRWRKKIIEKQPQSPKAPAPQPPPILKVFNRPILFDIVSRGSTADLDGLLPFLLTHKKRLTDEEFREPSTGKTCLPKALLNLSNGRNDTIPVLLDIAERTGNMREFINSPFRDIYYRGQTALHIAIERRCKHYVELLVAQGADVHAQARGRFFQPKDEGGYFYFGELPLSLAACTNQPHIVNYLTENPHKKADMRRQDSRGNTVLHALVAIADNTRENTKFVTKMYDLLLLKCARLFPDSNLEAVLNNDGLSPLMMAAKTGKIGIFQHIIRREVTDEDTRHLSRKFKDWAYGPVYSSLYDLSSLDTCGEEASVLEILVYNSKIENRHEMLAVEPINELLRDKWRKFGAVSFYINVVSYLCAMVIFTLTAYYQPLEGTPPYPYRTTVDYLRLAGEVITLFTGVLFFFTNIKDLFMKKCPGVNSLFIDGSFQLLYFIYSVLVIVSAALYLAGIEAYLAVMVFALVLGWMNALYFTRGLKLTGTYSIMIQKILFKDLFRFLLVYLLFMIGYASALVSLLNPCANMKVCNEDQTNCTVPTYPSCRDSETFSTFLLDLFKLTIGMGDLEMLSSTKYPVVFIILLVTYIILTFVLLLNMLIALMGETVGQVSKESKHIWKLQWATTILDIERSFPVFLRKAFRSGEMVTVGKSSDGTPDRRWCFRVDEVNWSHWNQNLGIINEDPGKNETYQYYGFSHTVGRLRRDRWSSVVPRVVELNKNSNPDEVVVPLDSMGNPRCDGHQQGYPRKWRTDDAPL

SMILES | IC50 [1] | IC50 [2]
CN(C)Cc1cccc(-c2cccc(C3(c4nc5c(c(=O)[nH]4)CN(C(=O)[C@H](O)c4cccc(C(F)(F)F)c4)CCC5)CC3)c2)c1 [42-36] | < 0.05 µM | –
CN1CCN(Cc2ccc(-c3cccc(C4(c5nc6c(c(=O)[nH]5)CN(C(=O)[C@H](O)c5cccc(C(F)(F)F)c5)CCC6)CC4)c3)cc2)CC1 [42-37] | < 0.05 µM | –
Cn1cc(-c2cccc(C3(c4nc5c(c(=O)[nH]4)CN(C(=O)[C@H](O)c4cccc(C(F)(F)F)c4)CCC5)CC3)c2)ccc1=O [42-38] | < 0.05 µM | –
O=C([C@H](O)c1cccc(C(F)(F)F)c1)N1CCCc2nc(C3(c4cccc(-c5ccc(OCc6ccccn6)cc5)c4)CC3)[nH]c(=O)c2C1 [42-43] | < 0.05 µM | < 0.003 µM
O=C([C@H](O)c1cccc(C(F)(F)F)c1)N1CCCc2nc(C3(c4cccc(-c5cncc(C(F)(F)F)c5)c4)CC3)[nH]c(=O)c2C1 [42-45] | < 0.05 µM | < 0.01 µM
O=C([C@H](O)c1cccc(C(F)(F)F)c1)N1CCCc2nc(C3(c4cccc(-c5ccc(C(F)(F)F)nc5)c4)CC3)[nH]c(=O)c2C1 [42-46] | < 0.05 µM | < 0.003 µM
O=C([C@H](O)c1cccc(C(F)(F)F)c1)N1CCCc2nc(C3(c4cccc(-c5ccc6ccccc6c5)c4)CC3)[nH]c(=O)c2C1 [42-47] | < 0.05 µM | < 0.01 µM
O=C([C@H](O)c1cccc(C(F)(F)F)c1)N1CCCc2nc(C3(c4cccc(-c5ccnc(C(F)(F)F)c5)c4)CC3)[nH]c(=O)c2C1 [42-48] | < 0.05 µM | < 0.003 µM
O=C([C@H](O)c1cccc(C(F)(F)F)c1)N1CCCc2nc(C3(c4cccc(-c5cccc6ccccc56)c4)CC3)[nH]c(=O)c2C1 [42-49] | < 0.05 µM | < 0.01 µM
CN1CCc2cc(-c3cccc(C4(c5nc6c(c(=O)[nH]5)CN(C(=O)[C@H](O)c5cccc(C(F)(F)F)c5)CCC6)CC4)c3)ccc21 [42-50] | < 0.05 µM | < 0.01 µM
O=C([C@H](O)c1cccc(C(F)(F)F)c1)N1CCCc2nc(C3(c4cccc(-c5ccc(N6CCCC6)nc5)c4)CC3)[nH]c(=O)c2C1 [42-51] | < 0.05 µM | < 0.01 µM
O=C([C@H](O)c1cccc(C(F)(F)F)c1)N1CCCc2nc(C3(c4cccc(-c5ccc(CN6CCCC6)cc5)c4)CC3)[nH]c(=O)c2C1 [42-52] | < 0.05 µM | –
CN(C)Cc1ccc(-c2cccc(C3(c4nc5c(c(=O)[nH]4)CN(C(=O)[C@H](O)c4cccc(C(F)(F)F)c4)CCC5)CC3)c2)cc1 [42-53] | < 0.05 µM | –
CNc1ccc(-c2cccc(C3(c4nc5c(c(=O)[nH]4)CN(C(=O)[C@H](O)c4cccc(C(F)(F)F)c4)CCC5)CC3)c2)cn1 [42-54] | < 0.05 µM | < 0.01 µM
N#Cc1ccc(-c2cccc(C3(c4nc5c(c(=O)[nH]4)CN(C(=O)[C@H](O)c4cccc(C(F)(F)F)c4)CCC5)CC3)c2)cn1 [42-55] | < 0.05 µM | < 0.003 µM
O=C([C@H](O)c1cccc(C(F)(F)F)c1)N1CCCc2nc(C3(c4cccc(-c5ccccc5F)c4)CC3)[nH]c(=O)c2C1 [42-56] | < 0.05 µM | < 0.01 µM
Cc1ccc(-c2cccc(C3(c4nc5c(c(=O)[nH]4)CN(C(=O)[C@H](O)c4cccc(C(F)(F)F)c4)CCC5)CC3)c2)cc1 [42-57] | < 0.05 µM | < 0.01 µM
O=C([C@H](O)c1cccc(C(F)(F)F)c1)N1CCCc2nc(C3(c4cccc(-c5cccc(F)c5)c4)CC3)[nH]c(=O)c2C1 [42-58] | < 0.05 µM | < 0.01 µM
O=C([C@H](O)c1cccc(C(F)(F)F)c1)N1CCCc2nc(C3(c4cccc(-c5ccc(F)cc5)c4)CC3)[nH]c(=O)c2C1 [42-59] | < 0.05 µM | < 0.01 µM
Cc1ccccc1-c1cccc(C2(c3nc4c(c(=O)[nH]3)CN(C(=O)[C@H](O)c3cccc(C(F)(F)F)c3)CCC4)CC2)c1 [42-60] | < 0.05 µM | < 0.01 µM
O=C([C@H](O)c1cccc(C(F)(F)F)c1)N1CCCc2nc(C3(c4cccc(-c5cc(F)cc(F)c5)c4)CC3)[nH]c(=O)c2C1 [42-61] | < 0.05 µM | < 0.01 µM
O=C([C@H](O)c1cccc(C(F)(F)F)c1)N1CCCc2nc(C3(c4cccc(-c5ccc(F)c(F)c5)c4)CC3)[nH]c(=O)c2C1 [42-62] | < 0.05 µM | < 0.01 µM
N#Cc1ccccc1-c1cccc(C2(c3nc4c(c(=O)[nH]3)CN(C(=O)[C@H](O)c3cccc(C(F)(F)F)c3)CCC4)CC2)c1 [42-63] | < 0.05 µM | < 0.01 µM
Cc1cccc(-c2cccc(C3(c4nc5c(c(=O)[nH]4)CN(C(=O)[C@H](O)c4cccc(C(F)(F)F)c4)CCC5)CC3)c2)c1 [42-64] | < 0.05 µM | < 0.01 µM
N#Cc1ccc(-c2cccc(C3(c4nc5c(c(=O)[nH]4)CN(C(=O)[C@H](O)c4cccc(C(F)(F)F)c4)CCC5)CC3)c2)cc1 [42-65] | < 0.05 µM | < 0.01 µM

SMILES | IC50 [1] | IC50 [2]
N#Cc1cc(-c2cccc(C3(c4nc5c(c(=O)[nH]4)CN(C(=O)[C@H](O)c4cccc(C(F)(F)F)c4)CCC5)CC3)c2)ccc1F [42-66] | < 0.05 µM | < 0.003 µM
N#Cc1ccc(-c2cccc(C3(c4nc5c(c(=O)[nH]4)CN(C(=O)[C@H](O)c4cccc(C(F)(F)F)c4)CCC5)CC3)c2)cc1F [42-67] | < 0.05 µM | < 0.01 µM
N#Cc1ccc(-c2cccc(C3(c4nc5c(c(=O)[nH]4)CN(C(=O)[C@H](O)c4cccc(C(F)(F)F)c4)CCC5)CC3)c2)cc1C#N [42-68] | < 0.05 µM | < 0.01 µM
N#Cc1cc(F)cc(-c2cccc(C3(c4nc5c(c(=O)[nH]4)CN(C(=O)[C@H](O)c4cccc(C(F)(F)F)c4)CCC5)CC3)c2)c1 [42-69] | < 0.05 µM | < 0.01 µM
O=C(Cc1cccc(-c2cccc(C(F)(F)F)c2)c1)N1CCCc2nc(C3(c4cccc(C5=CCCCC5)c4)CC3)[nH]c(=O)c2C1 [42-70] | < 0.05 µM | < 0.01 µM
N#Cc1cc(C#N)cc(-c2cccc(C3(c4nc5c(c(=O)[nH]4)CN(C(=O)[C@H](O)c4cccc(C(F)(F)F)c4)CCC5)CC3)c2)c1 [42-71] | < 0.05 µM | < 0.01 µM
O=C([C@H](O)c1cccc(C(F)(F)F)c1)N1CCCc2nc(C3(c4cccc(C5=CCN(C(=O)C6(C(F)(F)F)CC6)CC5)c4)CC3)[nH]c(=O)c2C1 [42-72] | < 0.05 µM | < 0.01 µM
O=C([C@H](O)c1cccc(C(F)(F)F)c1)N1CCCc2nc(C3(c4cccc(C5=CCN(C(=O)N6CCCCC6)CC5)c4)CC3)[nH]c(=O)c2C1 [42-73] | < 0.05 µM | < 0.01 µM
O=C(CN1CCc2ccccc21)N1CC=C(c2cccc(C3(c4nc5c(c(=O)[nH]4)CN(C(=O)[C@H](O)c4cccc(C(F)(F)F)c4)CCC5)CC3)c2)CC1 [42-74] | < 0.05 µM | < 0.01 µM
O=C([C@H](O)c1cccc(C(F)(F)F)c1)N1CCCc2nc(C3(c4cccc(C5=CCN(S(=O)(=O)c6ccc(F)cc6)CC5)c4)CC3)[nH]c(=O)c2C1 [42-75] | < 0.05 µM | < 0.01 µM
O=C([C@H](O)c1cccc(C(F)(F)F)c1)N1CCCc2nc(C3(c4cccc(C5=CCN(S(=O)(=O)C6CCCCC6)CC5)c4)CC3)[nH]c(=O)c2C1 [42-76] | < 0.05 µM | < 0.01 µM
O=C([C@H](O)c1cccc(C(F)(F)F)c1)N1CCCc2nc(C3(c4cccc(C5=CCN(C(=O)[C@H]6CC[C@H](C(F)(F)F)CC6)CC5)c4)CC3)[nH]c(=O)c2C1 [42-77] | < 0.05 µM | < 0.003 µM
O=C([C@H](O)c1cccc(C(F)(F)F)c1)N1CCCc2nc(C3(c4cccc(C5=CCN(S(=O)(=O)Cc6ccccc6)CC5)c4)CC3)[nH]c(=O)c2C1 [42-78] | < 0.05 µM | < 0.01 µM
O=C(Cc1ccc(COc2ccccc2)cc1)N1CC=C(c2cccc(C3(c4nc5c(c(=O)[nH]4)CN(C(=O)[C@H](O)c4cccc(C(F)(F)F)c4)CCC5)CC3)c2)CC1 [42-79] | < 0.05 µM | < 0.01 µM
O=C([C@H](O)c1cccc(C(F)(F)F)c1)N1CCCc2nc(C3(c4cccc(C5=CCN(CC(F)(F)F)CC5)c4)CC3)[nH]c(=O)c2C1 [42-81] | < 0.05 µM | < 0.01 µM
COc1ccc(C(=O)N2CC=C(c3cccc(C4(c5nc6c(c(=O)[nH]5)CN(C(=O)[C@H](O)c5cccc(C(F)(F)F)c5)CCC6)CC4)c3)CC2)cc1OC1CCCC1 [42-82] | < 0.05 µM | < 0.003 µM
O=C([C@H](O)c1cccc(C(F)(F)F)c1)N1CCCc2nc(C3(c4cccc(C5=CCN(C(=O)C6(c7cccc(C(F)(F)F)c7)CC6)CC5)c4)CC3)[nH]c(=O)c2C1 [42-83] | < 0.05 µM | < 0.003 µM
O=C(NC1CCCCC1)N1CC=C(c2cccc(C3(c4nc5c(c(=O)[nH]4)CN(C(=O)[C@H](O)c4cccc(C(F)(F)F)c4)CCC5)CC3)c2)CC1 [42-84] | < 0.05 µM | < 0.003 µM
CC(C)(C)CC(=O)N1CCN(c2ccc(-c3cccc(C4(c5nc6c(c(=O)[nH]5)CN(C(=O)[C@H](O)c5cccc(C(F)(F)F)c5)CCC6)CC4)c3)cn2)CC1 [42-85] | < 0.05 µM | < 0.01 µM
O=C(Cc1ccccc1)N1CCN(c2ccc(-c3cccc(C4(c5nc6c(c(=O)[nH]5)CN(C(=O)[C@H](O)c5cccc(C(F)(F)F)c5)CCC6)CC4)c3)cn2)CC1 [42-86] | < 0.05 µM | < 0.01 µM
O=C([C@H](O)c1cccc(C(F)(F)F)c1)N1CCCc2nc(C3(c4cccc(-c5ccc(N6CCC(c7ccccc7)CC6)nc5)c4)CC3)[nH]c(=O)c2C1 [42-87] | < 0.05 µM | < 0.01 µM
O=C([C@H](O)c1cccc(C(F)(F)F)c1)N1CCCc2nc(C3(c4cccc(-c5ccc(N6CCC(OCc7ccccc7)CC6)nc5)c4)CC3)[nH]c(=O)c2C1 [42-88] | < 0.05 µM | < 0.003 µM
CC(C)C(=O)N1CCN(c2ccc(-c3cccc(C4(c5nc6c(c(=O)[nH]5)CN(C(=O)[C@H](O)c5cccc(C(F)(F)F)c5)CCC6)CC4)c3)cn2)CC1 [42-89] | < 0.05 µM | < 0.01 µM
O=C(Cc1ccc(COc2ccccc2)cc1)N1CCN(c2ccc(-c3cccc(C4(c5nc6c(c(=O)[nH]5)CN(C(=O)[C@H](O)c5cccc(C(F)(F)F)c5)CCC6)CC4)c3)cn2)CC1 [42-90] | < 0.05 µM | < 0.01 µM
